From article PMC4459817, “Vasculotide reduces endothelial permeability and tumor cell extravasation in the absence of binding to or agonistic activation of Tie2” (EMBO Molecular Medicine, 2015)
One block for each molecule: values may come before it.

Columns and labels:
[1] = test system: LM2-4luc experimental metastasis; conditions: SU prior to IV inoculation of LM2-4luc; ref Ebos et al, 2009; cited from earlier work
Text: Here, we tested whether concurrent VT therapy can be used to reverse this pro-metastatic potential of SU in the same model. LM2-4^luc is a metastatically aggressive luciferase-tagged derivative of the MDA-MB-231 cell line that was derived through serial in vivo selection ...

mouse Tie2-Fc (mTie2-Fc) = target: T1, mouse Tie2-Fc (mTie2-Fc) (Mus musculus, UniProt Q02858); assay: SPR binding to mouse Tie2-Fc; conditions: mouse Tie2-Fc (low- and high-density), 37°C, pH 7.4, Supplementary Fig S3, listed as VT
T1 construct: Purified human or mouse Tie2-Fc (i.e., Fc-conjugated extracellular domains of Tie2); purchased R&D Systems 762-T2-100
T1 sequence (Q02858 23-746 limits assumed): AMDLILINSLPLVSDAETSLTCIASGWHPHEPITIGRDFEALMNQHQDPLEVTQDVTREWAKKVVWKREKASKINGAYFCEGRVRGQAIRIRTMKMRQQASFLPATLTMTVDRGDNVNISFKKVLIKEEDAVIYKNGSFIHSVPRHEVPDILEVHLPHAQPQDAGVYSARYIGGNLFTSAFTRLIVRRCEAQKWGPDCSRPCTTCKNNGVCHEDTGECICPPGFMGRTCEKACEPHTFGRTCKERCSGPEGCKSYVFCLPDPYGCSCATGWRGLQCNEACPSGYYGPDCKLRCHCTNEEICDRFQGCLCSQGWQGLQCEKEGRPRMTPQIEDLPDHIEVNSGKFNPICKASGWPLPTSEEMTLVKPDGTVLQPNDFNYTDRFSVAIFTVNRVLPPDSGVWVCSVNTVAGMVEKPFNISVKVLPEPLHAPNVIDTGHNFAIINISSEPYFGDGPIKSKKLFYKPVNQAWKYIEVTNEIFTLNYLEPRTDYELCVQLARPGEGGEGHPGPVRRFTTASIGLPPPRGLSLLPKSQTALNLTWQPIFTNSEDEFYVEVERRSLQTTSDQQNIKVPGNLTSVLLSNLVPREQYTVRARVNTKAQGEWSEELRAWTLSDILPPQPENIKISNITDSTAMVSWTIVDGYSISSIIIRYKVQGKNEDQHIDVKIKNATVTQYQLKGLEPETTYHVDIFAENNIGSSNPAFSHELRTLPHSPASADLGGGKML
Text: To better understand the difficulties we had in observing Tie2 activation by VT, we sought to characterize the binding affinity and kinetics of VT to Tie2. Purified human or mouse Tie2-Fc (i.e., Fc-conjugated extracellular domains of Tie2) were first coupled to protein A sepharose beads for pull-down experiments (Fig9A and B) or immobilized on a Biacore CM5 sensor chip for surface plasmon resonance (SPR) experiments (Fig9C and Supplementary Fig S3). […]
9. Tie2 Receptor-Binding Assays
Vasculotide (VT) was manufactured by Bachem UK Ltd. T7c (CHHHRHSF) was synthesized by Genscript (Piscataway, NJ, USA). PEG-Cys consists of a single cysteine reacted to each of the 4 arms of PEG-maleimide (Sunbright PTE-100MA, NOF Corporation, Tokyo, Japan). BowAng1 (Ang1-Fd-Fc-Fd) was made and provided by Regeneron Pharmaceuticals, Inc. (Tarrytown, NY, USA). COMP-Ang1 was purified in the Kerbel lab from serum-free culture media conditioned by an engineered CHO cell line provided by Dr. Gou Young Koh (KAIST), according to published protocols (Hwang et al, 2008).
Recombinant human Angiopoietin-1 (rhAng1) and Vascular Endothelial Growth Factor ( rhVEGF) were […]
purchased from R&D Systems. […]
(structural/molecular weight control for VT), and 40 μL of supernatant (7% of residual/unbound ligand) – were similarly boiled in SDS sample buffer. […]
Binding analysis were performed by exposure of immobilized mTie2-Fc to the analytes diluted in HBS-EP (0.01M HEPES pH 7.4, 0.15M NaCl, 3mM EDTA, 0.005% v/v Tween-20), which was supplemented with 1mg/mL carboxymethyl dextran (NSB reducer, GE Healthcare) to reduce non-specific binding to the sensor chip. […] To quantitatively determine the kinetic properties of the interaction (KD, kd, ka) and avoid mass transport limitations, mTie2-Fc and hTie2-Fc were immobilized at low density (1,000-1,200RU) onto separate flow cells of the CM5 chip using amine coupling chemistry. […] All data were analysed using BIA Evaluation Software 2.0 (GE Healthcare) to calculate kd, ka and KD using the 1:1 ligand binding model. […]

[2] = target: T2, human Tie2-Fc (Fc-conjugated extracellular domain of Tie2) (human, UniProt Q02763 23-748); assay: SPR
T2 chain: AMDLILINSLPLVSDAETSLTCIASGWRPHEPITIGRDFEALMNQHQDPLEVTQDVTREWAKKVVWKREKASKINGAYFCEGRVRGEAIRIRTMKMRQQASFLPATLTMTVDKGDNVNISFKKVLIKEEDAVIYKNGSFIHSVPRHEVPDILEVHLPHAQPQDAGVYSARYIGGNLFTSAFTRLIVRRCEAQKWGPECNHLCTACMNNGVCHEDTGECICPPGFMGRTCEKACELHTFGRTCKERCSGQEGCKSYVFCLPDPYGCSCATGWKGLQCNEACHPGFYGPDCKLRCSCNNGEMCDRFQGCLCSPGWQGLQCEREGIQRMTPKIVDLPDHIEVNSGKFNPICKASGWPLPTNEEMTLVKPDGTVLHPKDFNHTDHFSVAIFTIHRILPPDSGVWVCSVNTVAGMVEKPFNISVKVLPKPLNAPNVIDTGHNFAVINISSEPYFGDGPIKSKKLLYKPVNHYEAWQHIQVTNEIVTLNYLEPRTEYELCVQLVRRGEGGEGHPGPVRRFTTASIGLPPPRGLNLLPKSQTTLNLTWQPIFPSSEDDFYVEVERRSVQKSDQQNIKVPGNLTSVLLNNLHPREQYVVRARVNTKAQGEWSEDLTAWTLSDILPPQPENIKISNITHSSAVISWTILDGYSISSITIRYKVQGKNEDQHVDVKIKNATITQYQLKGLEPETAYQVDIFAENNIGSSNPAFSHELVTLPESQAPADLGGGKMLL

Molecule: CCN(CC)CCNC(=O)c1c(C)[nH]c(/C=C2\C(=O)Nc3ccc(F)cc32)c1C [sunitinib, reference compound]
experimental metastasis, especially in the lungs [1]: promotion of experimental metastasis, especially in the lungs

Molecule: CHHHRHSF [Vasculotide, 4-armed maleimide-functionalized polyethylene glycol (PEG) backbone to link together four cysteine-capped T7 peptides, that is, CHHHRHSF]
binding to Tie2-Fc (mouse Tie2-Fc (mTie2-Fc)): no binding to Tie2-Fc was detectable

koff [2]: 0.00029 s⁻¹
B1: recombinant human Ang1 (rhAng1) (ligand, UniProt Q15389 16-498, looked up)
chain: HIGCSNQRRSPENSGRRYNRIQHGQCAYTFILPEHDGNCRESTTDQYNTNALQRDAPHVEPDFSSQKLQHLEHVMENYTQWLQKLENYIVENMKSEMAQIQQNAVQNHTATMLEIGTSLLSQTAEQTRKLTDVETQVLNQTSRLEIQLLENSLSTYKLEKQLLQQTNEILKIHEKNSLLEHKILEMEGKHKEELDTLKEEKENLQGLVTRQTYIIQELEKQLNRATTNNSVLQKQQLELMDTVHNLVNLCTKEGVLLKGGKREEEKPFRDCADVYQAGFNKSGIYTIYINNMPEPKKVFCNMDVNGGGWTVIQHREDGSLDFQRGWKEYKMGFGNPSGEYWLGNEFIFAITSQRQYMLRIELMDWEGNRAYSQYDRFHIGNEKQNYRLYLKGHTGTAGKQSSLILHGADFSTKDADNDNCMCKCALMLTGGWWFDACGPSNLNGMFYTAGQNHGKLNGIKWHYFKGPSYSLRSTTMMIRPLDF
notes: angiopoietin-1, human, recombinant; also called angiopoietin-1; source: bought: R&D Systems (named for the Boyden chamber experiments)
